System: adhesion between vascular endothelial cells and HL-60 cells
Assay: Adhesion of HL-60 cells to TNF-α-stimulated vascular endothelial cells
Type: cell-based, Human
Conditions: for Adhesion rate: TNF-α-stimulated endothelial cells
Protocol: Human vascular endothelial cells (sold by Sanko Junyaku) suspended in RPMI-1640 medium (Gibco) containing 10% FCS (HyClone) at a concentration of 1×10^5 cells/ml. 100 μl/well of the suspension was seeded into a 96-well microtiter plate.
100 U/ml of human recombinant TNF-α (Promega) was added to monolayer of vascular endothelial cells after incubation at 37° C. for 2 days in a 5% CO2 incubator. The plate was incubated 37° C. for 6 hours in a 5% CO2 incubator to prepare vascular endothelial cells stimulated with TNF-α.
On the other hand, cyclopentenone, GM or dipropionylcyclopentenone at a varying concentration was added to HL-60 cells suspended in RPMI-1640 medium containing 10% FCS at a concentration of 1×10^6 cells/ml. The cells were cultured at 37° C. for 3 hours in a 5% CO2 incubator. After cultivation, 5 μM of 5(-and-6)-carboxyfluorescein diacetate, succinimide ester (Molecular Probe) as a fluorescent agent was added thereto and reacted at 37° C. for 10 minutes. The cells were washed twice with RPMI-1640 medium and suspended in RPMI-1640 medium containing 10% FCS to prepare a suspension of fluorescence-labeled HL-60 cells at a concentration of 1×10^6 cells/ml.
100 μl/well of the fluorescence-labeled HL-60 cells were overlaid onto the vascular endothelial cells stimulated with TNF-α. Cyclopentenone, GM or dipropionylcyclopentenone at a varying concentration was added thereto. The plate was incubated at 37° C. for 20 minutes in a 5% CO2 incubator for adhesion reaction between vascular endothelial cells and HL-60 cells.
After the adhesion reaction, the plate was washed to remove non-adhesive cells. 1% Triton X (Nacalai Tesque) was added thereto to destroy adhesive cells. The fluorescence intensity was measured using filters for 485/22 nm (excitation) and 530/25 nm (emission).
The adhesion rate which represents the ratio of cells adhered to vascular endothelial cells was determined defining the fluorescence intensity for 1×10^5 fluorescence-labeled cells as 100%.

In the case of `CCC(=O)OC1C=CC(=O)C1OC(=O)CC` (centres unmarked), the Adhesion rate (0.1 μM) is reported as 49.2%, the Adhesion rate (1 μM) is reported as 35.1% and the Adhesion rate (10 μM) is reported as 15.3%. For the same molecule, the Adhesion rate (100 μM) was 15.5% and the “Suppression of TNF-α-induced increase in adhesion rate (statement)” value (10^−7 to 10^−4 M, dose-dependent) was “suppressed”.
